Assay results taken from ChEMBL document CHEMBL4609973, “Hepatitis C - New drugs and treatment prospects” (Eur J Med Chem, 2019).

Key:
[1] = Half life in human; type: ADME
[2] = Oral bioavailability in human under fed condition; type: ADME, organism-based; settings: in vivo
[3] = Half life in HIV infected human; type: ADME
[4] = Absolute bioavailability in human; type: ADME, organism-based; settings: in vivo
[5] = Oral bioavailability in human; type: ADME, organism-based; settings: in vivo
[6] = Drug excretion in human feces assessed as daclatasvir level; type: ADME, tissue-based; settings: faeces, read-out: Drug excretion
[7] = Drug excretion in human feces assessed as dasabuvir level; type: ADME, tissue-based; settings: faeces, read-out: Drug excretion
[8] = Drug excretion in human feces assessed as ombitasvir level; type: ADME, tissue-based; settings: faeces, read-out: Drug excretion

With `COC[C@H]1C[C@@H](c2ncc(-c3ccc4c(c3)COc3cc5c(ccc6nc([C@@H]7CC[C@H](C)N7C(=O)[C@@H](NC(=O)OC)C(C)C)[nH]c65)cc3-4)[nH]2)N(C(=O)[C@H](NC(=O)OC)c2ccccc2)C1` [VELPATASVIR] the half-life [1] was 15 h.

With `COc1ccc2c(O[C@@H]3C[C@H]4C(=O)N[C@]5(C(=O)NS(=O)(=O)C6CC6)C[C@H]5/C=C\CCCCN(C)C(=O)[C@@H]4C3)cc(-c3nc(C(C)C)cs3)nc2c1C` [SIMEPREVIR] the half-life [1] was 10 to 13 h, the bioavailability [2] was 62% and the half-life [3] was 41 h.

Compound `Cc1cnc(C(=O)N[C@H]2CCCCC/C=C\[C@@H]3C[C@@]3(C(=O)NS(=O)(=O)C3CC3)NC(=O)[C@@H]3C[C@@H](Oc4nc5ccccc5c5ccccc45)CN3C2=O)cn1` [PARITAPREVIR] has a half-life [1] of 5.5 h and a bioavailability [4] of 53%.

`COC(=O)N[C@H](C(=O)N1CCC[C@H]1c1nc(-c2ccc(-c3ccc(-c4c[nH]c([C@@H]5CCCN5C(=O)[C@@H](NC(=O)OC)C(C)C)n4)cc3)cc2)c[nH]1)C(C)C` [DACLATASVIR] showed a bioavailability [5] of 67%, a half-life [1] of 12 to 15 h and a dose excreted [6] of 53%.

For `COC(=O)N[C@H](C(=O)N1CC2(CC2)C[C@H]1c1ncc(-c2ccc3c(c2)C(F)(F)c2cc(-c4ccc5nc([C@@H]6[C@H]7CC[C@H](C7)N6C(=O)[C@@H](NC(=O)OC)C(C)C)[nH]c5c4)ccc2-3)[nH]1)C(C)C` [LEDIPASVIR], the bioavailability [5] was 76% and the half-life [1] was 47 h.

Compound `C[C@@]1(F)[C@H](O)[C@@H](CO)O[C@H]1n1ccc(=O)[nH]c1=O` has a half-life [1] of 27 h.

Work on `COC(=O)N[C@H](C(=O)N1CCC[C@H]1c1nc2cc([C@H]3CC[C@H](c4cc5nc([C@@H]6CCCN6C(=O)[C@@H](NC(=O)OC)[C@@H](C)OC)[nH]c5cc4F)N3c3cc(F)c(N4CCC(c5ccc(F)cc5)CC4)c(F)c3)c(F)cc2[nH]1)[C@@H](C)OC` [PIBRENTASVIR] yielded a half-life [1] of 23 to 29 h.

`COc1c(-c2ccc3cc(NS(C)(=O)=O)ccc3c2)cc(-n2ccc(=O)[nH]c2=O)cc1C(C)(C)C` [DASABUVIR] showed a dose excreted [7] of 26.2%, a half-life [1] of 5.5 to 6 h and a bioavailability [4] of 70%.

`C=C[C@@H]1C[C@]1(NC(=O)[C@@H]1C[C@@H]2CN1C(=O)[C@H](C(C)(C)C)NC(=O)O[C@@H]1C[C@H]1CCCCCc1nc3ccc(OC)cc3nc1O2)C(=O)NS(=O)(=O)C1CC1` [GRAZOPREVIR ANHYDROUS] showed a half-life [1] of 31 h.

`COC(=O)N[C@H](C(=O)N1CCC[C@H]1C(=O)Nc1ccc([C@@H]2CC[C@@H](c3ccc(NC(=O)[C@@H]4CCCN4C(=O)[C@@H](NC(=O)OC)C(C)C)cc3)N2c2ccc(C(C)(C)C)cc2)cc1)C(C)C` [OMBITASVIR] gave a dose excreted [8] of 90.2%, a half-life [1] of 21 to 25 h and a bioavailability [4] of 48%.

`CC(C)OC(=O)[C@H](C)N[P@](=O)(OC[C@H]1O[C@@H](n2ccc(=O)[nH]c2=O)[C@](C)(F)[C@@H]1O)Oc1ccccc1` [SOFOSBUVIR] gave a bioavailability [5] of 92% and a half-life [1] of 0.4 h.

In the case of `CC(C)(C)[C@@H]1NC(=O)O[C@@H]2CCC[C@H]2OC/C=C/C(F)(F)c2nc3ccccc3nc2O[C@@H]2C[C@@H](C(=O)N[C@]3(C(=O)NS(=O)(=O)C4(C)CC4)C[C@H]3C(F)F)N(C2)C1=O` [GLECAPREVIR], the half-life [1] is reported as 6 h.

Compound `COC(=O)N[C@H](C(=O)N1CCC[C@H]1c1nc(-c2ccc3c(c2)O[C@@H](c2ccccc2)n2c-3cc3cc(-c4c[nH]c([C@@H]5CCCN5C(=O)[C@@H](NC(=O)OC)C(C)C)n4)ccc32)c[nH]1)C(C)C` [ELBASVIR] has a half-life [1] of 24 h.
